According to the supplement of paper PMC9938120:

How the values were obtained:
Assay in all cases: drug sensitivity score (DSS3, normalised partial AUC of % inhibition dose-response) (DSS (score)); higher = more sensitive (stronger inhibition of viability); extreme values may be limits of the assay
FMOC02_1 = patient-derived low-grade serous ovarian cancer cells; conditions: 72 h; library: FO5A; assay format: 2D, 384-well, CellTiter-Glo
Procedure, shortened: (§1)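 Early-passage (under 10) patient-derived ovarian cancer cells were dispensed onto 384-well flat clear-bottom plates pre-plated with compounds at five concentrations spanning a 10,000-fold range, then incubated 72 h at 37 °C, 5% CO2. Viability was read with CellTiter-Glo, and the data were processed in Breeze. The drug sensitivity score is a partial area under the percent-inhibition dose-response curve divided by the log of the upper asymptote, with higher values meaning greater sensitivity.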

FMOC02_2 = patient-derived low-grade serous ovarian cancer cells; conditions: 72 h; library: FO5A; assay format: 2D, 384-well, CellTiter-Glo
Procedure, shortened: as §1

FMOC02_3 = patient-derived low-grade serous ovarian cancer cells; conditions: 72 h; library: FO5A; assay format: 2D, 384-well, CellTiter-Glo
Procedure, shortened: as §1

FMOC03 = patient-derived mucinous ovarian cancer cells; conditions: 72 h; library: FO5A; assay format: 2D, 384-well, CellTiter-Glo
Procedure, shortened: as §1

FMOC04 = patient-derived high-grade serous ovarian cancer cells; conditions: 72 h; library: FO5A; assay format: 2D, 384-well, CellTiter-Glo
Procedure, shortened: as §1

FMOC06 = patient-derived mucinous ovarian cancer cells; conditions: 72 h; library: FO5A; assay format: 2D, 384-well, CellTiter-Glo
Procedure, shortened: as §1

FMOC09 = patient-derived high-grade serous ovarian cancer cells; conditions: 72 h; library: FO5A; assay format: 2D, 384-well, CellTiter-Glo
Procedure, shortened: as §1

FMOC11 = patient-derived high-grade serous ovarian cancer cells; conditions: 72 h; library: FO5A; assay format: 2D, 384-well, CellTiter-Glo
Procedure, shortened: as §1

FMOC14 = patient-derived high-grade serous ovarian cancer cells; conditions: 72 h; library: FO5A; assay format: 2D, 384-well, CellTiter-Glo
Procedure, shortened: as §1

FMOC17 = patient-derived low-grade serous ovarian cancer cells; conditions: 72 h; library: FO5A; assay format: 2D, 384-well, CellTiter-Glo
Procedure, shortened: as §1

FMOC22 = patient-derived mucinous ovarian cancer cells; conditions: 72 h; library: FO5A; assay format: 2D, 384-well, CellTiter-Glo
Procedure, shortened: as §1

FMOC24 = patient-derived high-grade serous ovarian cancer cells; conditions: 72 h; library: FO5A; assay format: 2D, 384-well, CellTiter-Glo
Procedure, shortened: as §1

FMOC25_1 = patient-derived low-grade serous ovarian cancer cells; conditions: 72 h; library: FO4B; assay format: 2D, 384-well, CellTiter-Glo
Procedure, shortened: as §1

FMOC25_2 = patient-derived low-grade serous ovarian cancer cells; conditions: 72 h; library: FO5A; assay format: 2D, 384-well, CellTiter-Glo
Procedure, shortened: as §1

FMOC27 = patient-derived low-grade serous ovarian cancer cells; conditions: 72 h; library: FO5A; assay format: 2D, 384-well, CellTiter-Glo
Procedure, shortened: as §1

FMOC28 = patient-derived low-grade serous ovarian cancer cells; conditions: 72 h; library: FO5A; assay format: 2D, 384-well, CellTiter-Glo
Procedure, shortened: as §1

## COCC1(CO)C(=O)C2CCN1CC2 (configuration not stated) [APR-246]
FMOC02_1
  drug sensitivity score: 0
FMOC02_2
  drug sensitivity score: 0
FMOC02_3
  drug sensitivity score: 0
FMOC03
  drug sensitivity score: 0
FMOC04
  drug sensitivity score: 0
FMOC06
  drug sensitivity score: 0
FMOC09
  drug sensitivity score: 0
FMOC11
  drug sensitivity score: 0
FMOC14
  drug sensitivity score: 0
FMOC17
  drug sensitivity score: 0
FMOC22
  drug sensitivity score: 0
FMOC24
  drug sensitivity score: 0.05
FMOC25_1
  drug sensitivity score: 0
FMOC25_2
  drug sensitivity score: 0
FMOC27
  drug sensitivity score: 0
FMOC28
  drug sensitivity score: 0

## CCNc1nc(Nc2cc(F)c(C(=O)N3CCOCC3)cc2OC)ncc1C(F)(F)F [GNE-7915]
FMOC02_1
  drug sensitivity score: 0
FMOC02_2
  drug sensitivity score: 0
FMOC02_3
  drug sensitivity score: 1
FMOC03
  drug sensitivity score: 0
FMOC04
  drug sensitivity score: 0
FMOC06
  drug sensitivity score: 0
FMOC09
  drug sensitivity score: 0
FMOC11
  drug sensitivity score: 0
FMOC14
  drug sensitivity score: 0
FMOC17
  drug sensitivity score: 0
FMOC22
  drug sensitivity score: 0
FMOC24
  drug sensitivity score: 0
FMOC25_1
  drug sensitivity score: 0
FMOC25_2
  drug sensitivity score: 0
FMOC27
  drug sensitivity score: 0
FMOC28
  drug sensitivity score: 2

## CS(=O)(=O)CCNCc1ccc(-c2ccc3ncnc(Nc4ccc(OCc5cccc(F)c5)c(Cl)c4)c3c2)o1 [Lapatinib]
FMOC02_1
  drug sensitivity score: 5.4
FMOC02_2
  drug sensitivity score: 6.9
FMOC02_3
  drug sensitivity score: 4.6
FMOC03
  drug sensitivity score: 5.3
FMOC04
  drug sensitivity score: 0
FMOC06
  drug sensitivity score: 1
FMOC09
  drug sensitivity score: 2.9
FMOC11
  drug sensitivity score: 3.3
FMOC14
  drug sensitivity score: 0.5
FMOC17
  drug sensitivity score: 3
FMOC22
  drug sensitivity score: 0
FMOC24
  drug sensitivity score: 0.05
FMOC25_1
  drug sensitivity score: 3.6
FMOC25_2
  drug sensitivity score: 3.7
FMOC27
  drug sensitivity score: 4.3
FMOC28
  drug sensitivity score: 4

## Cc1cccc(CC(=O)N2CCc3c2ccc(-c2cn(C)c4ncnc(N)c24)c3F)n1
FMOC02_1
  drug sensitivity score: 0
FMOC02_2
  drug sensitivity score: 0
FMOC02_3
  drug sensitivity score: 0
FMOC03
  drug sensitivity score: 0
FMOC04
  drug sensitivity score: 0
FMOC06
  drug sensitivity score: 0
FMOC09
  drug sensitivity score: 0
FMOC11
  drug sensitivity score: 0
FMOC14
  drug sensitivity score: 0
FMOC17
  drug sensitivity score: 0
FMOC22
  drug sensitivity score: 0.2
FMOC24
  drug sensitivity score: 0
FMOC25_1
  drug sensitivity score: 0.2
FMOC25_2
  drug sensitivity score: 1.6
FMOC27
  drug sensitivity score: 0
FMOC28
  drug sensitivity score: 0

## Cc1c(F)cc(C(=O)NC2CC2)cc1-c1ccc(C(=O)NCC(C)(C)C)cn1 [Losmapimod]
FMOC02_1
  drug sensitivity score: 0.1
FMOC02_2
  drug sensitivity score: 0
FMOC02_3
  drug sensitivity score: 0
FMOC03
  drug sensitivity score: 0
FMOC04
  drug sensitivity score: 0
FMOC06
  drug sensitivity score: 1
FMOC09
  drug sensitivity score: 0
FMOC11
  drug sensitivity score: 1.4
FMOC14
  drug sensitivity score: 0
FMOC17
  drug sensitivity score: 0
FMOC22
  drug sensitivity score: 0
FMOC24
  drug sensitivity score: 0
FMOC25_1
  drug sensitivity score: 0
FMOC25_2
  drug sensitivity score: 0
FMOC27
  drug sensitivity score: 0
FMOC28
  drug sensitivity score: 0

## CC(C)N(C[C@H]1O[C@@H](n2cnc3c(N)ncnc32)[C@H](O)[C@@H]1O)[C@H]1C[C@@H](CCc2nc3cc(C(C)(C)C)ccc3[nH]2)C1 [Pinometostat]
FMOC02_1
  drug sensitivity score: 0
FMOC02_2
  drug sensitivity score: 0
FMOC02_3
  drug sensitivity score: 0
FMOC03
  drug sensitivity score: 0
FMOC04
  drug sensitivity score: 0
FMOC06
  drug sensitivity score: 0
FMOC09
  drug sensitivity score: 0
FMOC11
  drug sensitivity score: 0
FMOC14
  drug sensitivity score: 0
FMOC17
  drug sensitivity score: 0
FMOC22
  drug sensitivity score: 0
FMOC24
  drug sensitivity score: 0
FMOC25_1
  drug sensitivity score: 0
FMOC25_2
  drug sensitivity score: 0.2
FMOC27
  drug sensitivity score: 0
FMOC28
  drug sensitivity score: 2.1

## C[C@]12C=CC(=O)C=C1CC[C@@H]1[C@@H]2[C@@H](O)C[C@@]2(C)[C@H]1CC[C@]2(O)C(=O)CO [Prednisolone]
FMOC02_1
  drug sensitivity score: 0.1
FMOC02_2
  drug sensitivity score: 0
FMOC02_3
  drug sensitivity score: 0
FMOC03
  drug sensitivity score: 0
FMOC04
  drug sensitivity score: 0
FMOC06
  drug sensitivity score: 0.7
FMOC09
  drug sensitivity score: 0
FMOC11
  drug sensitivity score: 0
FMOC14
  drug sensitivity score: 0
FMOC17
  drug sensitivity score: 0
FMOC22
  drug sensitivity score: 0
FMOC24
  drug sensitivity score: 0.65
FMOC25_1
  drug sensitivity score: 0
FMOC25_2
  drug sensitivity score: 0
FMOC27
  drug sensitivity score: 0
FMOC28
  drug sensitivity score: 0

## CC[C@H](CO)Nc1nc(NCc2ccccc2)c2ncn(C(C)C)c2n1 [Seliciclib]
FMOC02_1
  drug sensitivity score: 4.1
FMOC02_2
  drug sensitivity score: 4.3
FMOC02_3
  drug sensitivity score: 3.5
FMOC03
  drug sensitivity score: 1.5
FMOC04
  drug sensitivity score: 0.1
FMOC06
  drug sensitivity score: 0.1
FMOC09
  drug sensitivity score: 0
FMOC11
  drug sensitivity score: 0
FMOC14
  drug sensitivity score: 1.5
FMOC17
  drug sensitivity score: 1.4
FMOC22
  drug sensitivity score: 0
FMOC24
  drug sensitivity score: 1.35
FMOC25_1
  drug sensitivity score: 0.9
FMOC25_2
  drug sensitivity score: 2.1
FMOC27
  drug sensitivity score: 0
FMOC28
  drug sensitivity score: 1.2

## N#Cc1ccc(C(c2ccc(C#N)cc2)n2cncn2)cc1 [Letrozole]
FMOC02_1
  drug sensitivity score: 0
FMOC02_2
  drug sensitivity score: 0
FMOC02_3
  drug sensitivity score: 0
FMOC03
  drug sensitivity score: 0
FMOC04
  drug sensitivity score: 0
FMOC06
  drug sensitivity score: 0
FMOC09
  drug sensitivity score: 0
FMOC11
  drug sensitivity score: 0
FMOC14
  drug sensitivity score: 0
FMOC17
  drug sensitivity score: 0
FMOC22
  drug sensitivity score: 0
FMOC24
  drug sensitivity score: 0
FMOC25_1
  drug sensitivity score: 0
FMOC25_2
  drug sensitivity score: 0
FMOC27
  drug sensitivity score: 0
FMOC28
  drug sensitivity score: 0

## CCc1c(C(=O)C(N)=O)c2c(OCC(=O)O)cccc2n1Cc1ccccc1 [Varespladib]
FMOC02_1
  drug sensitivity score: 0
FMOC02_2
  drug sensitivity score: 0
FMOC02_3
  drug sensitivity score: 0
FMOC03
  drug sensitivity score: 0
FMOC04
  drug sensitivity score: 0
FMOC06
  drug sensitivity score: 0
FMOC09
  drug sensitivity score: 0
FMOC11
  drug sensitivity score: 0
FMOC14
  drug sensitivity score: 0
FMOC17
  drug sensitivity score: 0
FMOC22
  drug sensitivity score: 0
FMOC24
  drug sensitivity score: 0.1
FMOC25_1
  drug sensitivity score: 0
FMOC25_2
  drug sensitivity score: 0
FMOC27
  drug sensitivity score: 0
FMOC28
  drug sensitivity score: 0

## CC(=O)Nc1ccc(C(=O)Nc2ccccc2N)cc1 [Tacedinaline]
FMOC02_1
  drug sensitivity score: 0.7
FMOC02_2
  drug sensitivity score: 1.3
FMOC02_3
  drug sensitivity score: 2
FMOC03
  drug sensitivity score: 0
FMOC04
  drug sensitivity score: 0
FMOC06
  drug sensitivity score: 3.7
FMOC09
  drug sensitivity score: 0
FMOC11
  drug sensitivity score: 1
FMOC14
  drug sensitivity score: 0.6
FMOC17
  drug sensitivity score: 1.1
FMOC22
  drug sensitivity score: 0
FMOC24
  drug sensitivity score: 2.05
FMOC25_1
  drug sensitivity score: 0
FMOC25_2
  drug sensitivity score: 0
FMOC27
  drug sensitivity score: 0
FMOC28
  drug sensitivity score: 1.7

## Cc1cc(Nc2ncc(Cl)c(Nc3ccccc3S(=O)(=O)C(C)C)n2)c(OC(C)C)cc1C1CCNCC1 [Ceritinib]
FMOC02_1
  drug sensitivity score: 2.6
FMOC02_2
  drug sensitivity score: 4.2
FMOC02_3
  drug sensitivity score: 4.3
FMOC03
  drug sensitivity score: 1.5
FMOC04
  drug sensitivity score: 3.15
FMOC06
  drug sensitivity score: 3.7
FMOC09
  drug sensitivity score: 3.1
FMOC11
  drug sensitivity score: 0.5
FMOC14
  drug sensitivity score: 0
FMOC17
  drug sensitivity score: 2.4
FMOC22
  drug sensitivity score: 1.7
FMOC24
  drug sensitivity score: 0.35
FMOC25_1
  drug sensitivity score: 0.6
FMOC25_2
  drug sensitivity score: 4.8
FMOC27
  drug sensitivity score: 2.2
FMOC28
  drug sensitivity score: 0
